Experimental data taken from ChEMBL document CHEMBL1126056, “Asymmetric synthesis of 1,3-dioxolane-pyrimidine nucleosides and their anti-HIV activity” (J Med Chem, 1992).

Experiments:
[1] = Cytotoxicity in peripheral blood mononuclear cells (PBM).; format: functional, cell-based; conditions: Homo sapiens
[2] = tested on: Vero; test: Cytotoxicity in vero cells.; format: functional, cell-based; conditions: Chlorocebus sabaeus
[3] = Effective concentration against HIV-1 in peripheral blood mononuclear cells (PBM).; format: functional, Homo sapiens
[4] = Cytotoxicity in peripheral blood mononuclear cells(PBM).; format: functional, cell-based; conditions: Homo sapiens
[5] = Effective concentration against HIV-1 in peripheral blood mononuclear cells(PBM).; format: functional, Homo sapiens
[6] = Cytotoxicity in peripheral blood mononuclear; format: functional, Homo sapiens
[7] = The compound was tested for antiviral activity against AZT resistant strain 10 HIV in PBM cells.; format: functional; conditions: Homo sapiens, PBMC
[8] = The compound was tested for antiviral activity against AZT resistant strain 9F HIV in PBM cells.; format: functional, cell-based; conditions: Homo sapiens, PBMC
[9] = The compound was tested for antiviral activity against AZT sensitive 10 HIV in PBM cells.; format: functional; conditions: Homo sapiens, PBMC
[10] = The compound was tested for antiviral activity against AZT sensitive strain 9F HIV in PBM cells.; format: functional, cell-based; conditions: Homo sapiens, PBMC

| SMILES | EC50 [3] [µM] | IC50 [1] [µM] | IC50 [2] [µM] | also measured |
| --- | --- | --- | --- | --- |
| Nc1ccn([C@H]2CO[C@@H](CO)O2)c(=O)n1 | 0.16 | 62 | 8.3 | – |
| O=c1[nH]c(=O)n([C@H]2CO[C@@H](CO)O2)cc1Br | – | – | > 100 | IC50 [4]: > 100 µM; EC50 [5]: 9.3 µM |
| O=c1[nH]c(=O)n([C@@H]2CO[C@@H](CO)O2)cc1Br | – | – | > 100 | IC50 [4]: > 100 µM; EC50 [5]: > 100 µM |
| O=c1[nH]c(=O)n([C@@H]2CO[C@@H](CO)O2)cc1F | > 100 | > 100 | > 100 | – |
| O=c1[nH]c(=O)n([C@@H]2CO[C@@H](CO)O2)cc1Cl | > 100 | > 100 | > 100 | – |
| Cc1cn([C@H]2C[C@H](N=[N+]=[N-])[C@@H](CO)O2)c(=O)[nH]c1=O [ZIDOVUDINE] | – | > 100 | 28 | EC90 [7]: 19 µM; EC50 [8]: 1.2 µM; EC90 [9]: 0.0065 µM; EC50 [5]: 0.009 µM; EC50 [10]: 0.0012 µM |

The next lines start with results.

| EC50 [3] [µM] | SMILES | IC50 [1] [µM] | IC50 [2] [µM] | also measured |
| --- | --- | --- | --- | --- |
| > 100 | O=c1ccn([C@H]2CO[C@@H](CO)O2)c(=O)[nH]1 | > 100 | > 100 | – |
| 2.4 | Nc1ccn([C@@H]2CO[C@@H](CO)O2)c(=O)n1 | > 100 | > 100 | – |
| 6.8 | O=c1[nH]c(=O)n([C@H]2CO[C@@H](CO)O2)cc1Cl | – | > 100 | IC50 [6]: > 100 µM |
| 69.6 | O=c1[nH]c(=O)n([C@H]2CO[C@@H](CO)O2)cc1F | > 100 | > 100 | – |
| > 100 | O=c1ccn([C@@H]2CO[C@@H](CO)O2)c(=O)[nH]1 | > 100 | > 100 | – |
| > 100 | O=c1[nH]c(=O)n([C@H]2CO[C@@H](CO)O2)cc1I | > 100 | > 100 | – |
| > 100 | O=c1[nH]c(=O)n([C@@H]2CO[C@@H](CO)O2)cc1I | > 100 | > 100 | – |
